Usually IC50 stands for the concentration that inhibits the measured activity by half. The low end stands for higher potency, the high end for lower potency.

Experiment [1] can be described thus: Growth inhibition of human OE21 cells after 3 days by MTT assay. Format: functional, cell-based. The note with it: OE21, 72 h. (In general: Tetrazolium assays rely on reduction of a dye to a coloured formazan, in cell work by metabolically active cells.)
The next experiment can be described thus: cells. The note with it: Homo sapiens, U373 MG, 72 h.
The subject of the next experiment is T98G. Briefly: cells. As to conditions: Homo sapiens, 72 h.
The test system of another experiment is Hs 683. Description: cells. As to conditions: Homo sapiens, Hs 683, 72 h.
Another experiment has as its system OE33. Briefly: Growth inhibition of human OE33 cells after 3 days by MTT assay. In kind it is functional, cell-based. As to conditions: OE33, 72 h.

On to `Cc1c2c(cc[n+]1CCc1ccccc1)c1ccc(OCc3ccccc3)cc1n2Cc1ccccc1`, for which the IC50 in experiment [1] turned out to be 2.4 µM; in “cells”, 2 µM; in the experiment with T98G, 2.4 µM; in the experiment on Hs 683 it was 2.3 µM.
Consider `CCCCCC[n+]1ccc2c3ccc(OCc4ccccc4)cc3n(Cc3ccccc3)c2c1C`, for which the IC50 in experiment [1] came to 1.9 µM; in “cells” it was 0.7 µM; in the experiment on T98G it was 3.1 µM; in the experiment with Hs 683 it was 0.6 µM.
Regarding `Cc1c2c(cc[n+]1CCO)c1ccc(OCc3ccccc3)cc1n2Cc1ccccc1`, the IC50 turned out to be 25 µM in experiment [1], 9 µM in “cells”, 61 µM with T98G and 31 µM in the experiment with Hs 683.
As for `Cc1nccc2c3ccc(O)cc3n(Cc3ccccc3)c12`, the IC50 in experiment [1] is 35 µM; in the experiment with OE33 it was 35 µM; in “cells”, 80 µM; in the experiment on T98G, 81 µM; in the experiment on Hs 683 it was 79 µM.
As to `Cc1c2c(cc[n+]1CCc1ccccc1)c1ccc(OCC3CCCCC3)cc1n2CC1CCCCC1`, the IC50 worked out at 0.2 µM in the experiment “cells”, 0.26 µM in the experiment on T98G and 0.31 µM in the experiment on Hs 683.
For `C=CCOc1ccc2c(c1)[nH]c1c(C)nccc12`, the IC50 stood at 27 µM in experiment [1]; 30 µM in the experiment on OE33; 32 µM in “cells”; 32 µM in the experiment on T98G; 28 µM in the experiment on Hs 683.
As to `Cc1c2c(cc[n+]1CCO)c1ccc(OCC3CCCCC3)cc1n2CC1CCCCC1`, the IC50 in the experiment “cells” worked out at 1.7 µM; in the experiment on T98G, 2.6 µM; with Hs 683, 3.8 µM.
For the molecule `Cc1nccc2c3ccc(OCc4ccc(F)cc4)cc3n(Cc3ccc(F)cc3)c12`, the IC50 turned out to be 15 µM in experiment [1]; 25 µM in the experiment with OE33; 30 µM in the experiment “cells”; 14 µM in the experiment on T98G; 17 µM with Hs 683.
For `Cc1c2c(cc[n+]1CCC(C)C)c1ccc(OCC3CCCCC3)cc1n2CC1CCCCC1`, the IC50 in the experiment “cells” turned out to be 0.4 µM; in the experiment on T98G, 0.43 µM; in the experiment on Hs 683, 0.42 µM.
As for `Cc1c2c(cc[n+]1CCC(C)C)c1ccc(OCCC(C)C)cc1n2CCC(C)C`, the IC50 in experiment [1] came to 0.48 µM; in the experiment “cells”, 0.22 µM; in the experiment with T98G it was 0.41 µM; in the experiment with Hs 683 it was 0.26 µM.
The corresponding values for `Cc1c2c(cc[n+]1CCO)c1ccc(OCCC(C)C)cc1n2CCC(C)C` are 7.6 µM, 2.5 µM, 2.9 µM and 4 µM.
The corresponding values for `CCC[n+]1ccc2c3ccc(OCc4ccccc4)cc3n(Cc3ccccc3)c2c1C` are 3.4 µM, 2.5 µM, 11 µM and 0.6 µM.
In the case of `Cc1nccc2c1[nH]c1cc(OCc3cccc4ccccc34)ccc12`, the IC50 came to 33 µM in experiment [1]; 8.2 µM with OE33; 7.4 µM in the experiment “cells”; 12 µM with T98G; 19 µM in the experiment on Hs 683.
The corresponding values for `Cc1c2c(cc[n+]1Cc1ccc(F)cc1)c1ccc(OCc3ccccc3)cc1n2Cc1ccccc1` are 0.61 µM, 2.4 µM, 0.6 µM, 0.6 µM and 1.6 µM.
The like results for `Cc1c2c(cc[n+]1Cc1ccccc1)c1ccc(OCc3ccc(F)cc3)cc1n2Cc1ccc(F)cc1` were, in that order, 0.5 µM, 1.4 µM, 0.43 µM, 0.4 µM and 0.9 µM.
Turning to `Cc1nccc2c3ccc(OCc4cccc(F)c4)cc3n(Cc3cccc(F)c3)c12`, the IC50 in experiment [1] amounted to 7.9 µM; in the experiment with OE33, 16 µM; in the experiment “cells”, 0.4 µM; with T98G it was 27 µM; with Hs 683, 18 µM.
The like results for `Cc1c2c(cc[n+]1Cc1ccccc1)c1ccc(OCc3cccc(F)c3)cc1n2Cc1cccc(F)c1` were, in that order, 0.4 µM, 2.9 µM, 0.8 µM, 0.97 µM and 2.8 µM.
As for `CCCn1c2cc(OCc3ccccc3)ccc2c2ccnc(C)c21`, the IC50 is 23 µM in experiment [1]; 9 µM in the experiment on OE33; 26 µM in the experiment “cells”; 34 µM in the experiment with T98G; 13 µM in the experiment with Hs 683.
The corresponding values for `Cc1c2c(cc[n+]1Cc1ccccc1F)c1ccc(OCC3CCCCC3)cc1n2CC1CCCCC1` are 0.35 µM, 0.35 µM, 1.4 µM, 0.07 µM and 0.25 µM.
Regarding `Cc1c2c(cc[n+]1Cc1ccccc1F)c1ccc(OCc3ccccc3)cc1n2Cc1ccccc1`, the IC50 in experiment [1] came out at 0.38 µM; in the experiment with OE33 it was 0.7 µM; in “cells” it was 0.5 µM; in the experiment with T98G, 0.37 µM; with Hs 683, 0.44 µM.
The like results for `Cc1nccc2c1[nH]c1cc(OCc3ccccc3)ccc12` were, in that order, 21 µM, 4.1 µM, 9.3 µM, 17 µM and 17 µM.
As to `CCCn1c2cc(OCc3ccccc3)ccc2c2cc[n+](Cc3ccccc3F)c(C)c21`, the IC50 in experiment [1] stood at 0.42 µM; with OE33, 0.25 µM; in “cells” it was 0.39 µM; in the experiment with T98G it was 1.8 µM; with Hs 683 it was 0.45 µM.
The corresponding values for `CCCn1c2cc(OCc3ccccc3)ccc2c2cc[n+](Cc3ccc(F)cc3)c(C)c21` are 1.9 µM, 1 µM, 0.88 µM, 5.7 µM and 3.1 µM.
`Cc1nccc2c3ccc(OCCC(C)C)cc3n(CCC(C)C)c12`: the IC50 in experiment [1] stood at 30 µM; in the experiment “cells”, 33 µM; in the experiment on T98G it was 35 µM; with Hs 683 it was 30 µM.
Turning to `Cc1nccc2c1[nH]c1cc(OCCCC(F)(F)F)ccc12`, the IC50 in experiment [1] is above 100 µM; in the experiment on OE33, above 100 µM; in the experiment “cells”, above 100 µM; in the experiment on T98G, 86 µM; in the experiment on Hs 683, above 100 µM.
Take `Cc1c2c(cc[n+]1Cc1ccccc1)c1ccc(OCCC(C)C)cc1n2CCC(C)C`: the IC50 in “cells” was 0.38 µM; in the experiment on T98G, 0.6 µM; with Hs 683, 0.47 µM.
Consider `Cc1nccc2c1[nH]c1cc(OCc3ccccn3)ccc12`, for which the IC50 in experiment [1] is 16 µM; in the experiment with OE33, 23 µM; in “cells”, 21 µM; in the experiment with T98G, 20 µM; in the experiment with Hs 683 it was 20 µM.
In the case of `Cc1c2c(cc[n+]1CCc1ccccc1)c1ccc(OCCC(C)C)cc1n2CCC(C)C`, the IC50 in experiment [1] was found to be 3.7 µM; in “cells” it was 3.4 µM; in the experiment with T98G, 3.5 µM; in the experiment on Hs 683 it was 3.1 µM.
On to `Cc1c2c(cc[n+]1Cc1ccccc1F)c1ccc(OCc3cccc(F)c3)cc1n2Cc1cccc(F)c1`, for which the IC50 was 1.4 µM in experiment [1]; 3 µM with OE33; 0.6 µM in “cells”; 0.7 µM in the experiment with T98G; 2.2 µM in the experiment on Hs 683.
The corresponding values for `Cc1c2c(cc[n+]1Cc1ccccc1F)c1ccc(OCc3ccc(F)cc3)cc1n2Cc1ccc(F)cc1` are 1.6 µM, 1.6 µM, 0.5 µM, 0.43 µM and 1.2 µM.
Take `Cc1c2c(cc[n+]1Cc1ccc(F)cc1)c1ccc(OCC3CCCCC3)cc1n2CC1CCCCC1`: the IC50 was 1.4 µM in experiment [1]; 1 µM in the experiment on OE33; 0.04 µM in “cells”; 2 µM in the experiment on T98G; 3.1 µM in the experiment with Hs 683.
The like results for `Cc1nccc2c1[nH]c1cc(OCCc3ccccc3)ccc12` were, in that order, 14 µM, 7.9 µM, 9.1 µM, 21 µM and 21 µM.
The corresponding values for `Cc1c2c(cc[n+]1Cc1ccc(F)cc1)c1ccc(OCc3ccc(F)cc3)cc1n2Cc1ccc(F)cc1` are 3.7 µM, 3.1 µM, 2.9 µM, 14 µM and 13 µM.
The corresponding values for `Cc1nccc2c1[nH]c1cc(OCC(C)C)ccc12` are 12 µM, 25 µM, 24 µM, 22 µM and 23 µM.
Take `Cc1nccc2c1[nH]c1cc(OCC3CCCCC3)ccc12`: the IC50 in experiment [1] came out at 8.3 µM; with OE33, 8.1 µM; in the experiment “cells”, 7.5 µM; in the experiment with T98G it was 7.2 µM; in the experiment with Hs 683, 22 µM.
Consider `CCCn1c2cc(OCc3ccccc3)ccc2c2cc[n+](Cc3ccccc3)c(C)c21`, for which the IC50 was determined as 0.57 µM in experiment [1]; 0.3 µM with OE33; 0.41 µM in “cells”; 1.7 µM in the experiment on T98G; 2.6 µM in the experiment with Hs 683.
With `COc1ccc2c(c1)[nH]c1c(C)nccc12` [HARMINE], the IC50 in experiment [1] is 32 µM; with OE33, 18 µM; in the experiment “cells”, 32 µM; with T98G, 24 µM.
Take `Cc1nccc2c1[nH]c1cc(OC(=O)c3ccccc3)ccc12`: the IC50 stood at 30 µM in experiment [1]; 31 µM with OE33; 27 µM in the experiment “cells”; 42 µM with T98G; 53 µM with Hs 683.
The like results for `Cc1nccc2c1[nH]c1cc(OCCO)ccc12` were, in that order, 30 µM, 63 µM, 42 µM, 53 µM and 41 µM.
The corresponding values for `Cc1nccc2c1[nH]c1cc(OCc3ccncc3)ccc12` are 5 µM, 6.3 µM, 2.5 µM, 3.6 µM and 8.1 µM.
On to `Cc1c2c(cc[n+]1CCC(C)C)c1ccc(OCc3ccccc3)cc1n2Cc1ccccc1`, for which the IC50 in experiment [1] was 0.5 µM; in the experiment “cells”, 0.39 µM; with T98G, 1.2 µM; in the experiment with Hs 683 it was 0.37 µM.

The values are drawn from ChEMBL document CHEMBL2163222 (J Med Chem, 2012).
